One may read the IC50 as the midpoint of a concentration-inhibition curve.

The target in this assay is Chymase (Homo sapiens (Human), UniProt P23946). The note with it: read-out: Chymase IC50; fluorogenic rhodamine 110 peptide substrate, 1 hour at 28° C., 1% DMSO.
Sequence of Chymase (P23946 22-247): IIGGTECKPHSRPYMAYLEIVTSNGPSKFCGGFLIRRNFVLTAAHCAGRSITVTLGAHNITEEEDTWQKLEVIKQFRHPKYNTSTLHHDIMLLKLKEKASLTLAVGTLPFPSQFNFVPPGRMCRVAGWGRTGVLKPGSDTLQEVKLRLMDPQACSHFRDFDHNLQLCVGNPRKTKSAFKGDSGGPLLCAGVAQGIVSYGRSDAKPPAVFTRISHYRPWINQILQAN

With `CC[C@H](CC(=O)O)n1c(=O)c2ncccc2n(Cc2cn(C)c3cc(C)cc(C)c23)c1=O` [(R)-3-[2,4-Dioxo-1-(1,4,6-trimethyl-1H-indol-3-ylmethyl)-1,4-dihydro-2H-pyrido[3,2-d]pyrimidin-3-yl]-pentanoic acid], the IC50 worked out at 0.4 nM.
